# Columns and labels:
# patients with WD = tested on: patients with WD
# Text: All patients who completed the 24-week Study Period were enrolled in a 36-month Extension Period.
# [1] = tested on: ^64Cu hepatic uptake, biliary copper excretion; conditions: 4 WD patients, FIG. 30
# Protocol: 15 minutes after intravenous administration of ^64Cu, a dynamic PET-MR scan was performed, followed by additional scans at 1, 2, 6, 20, 48, 54, and 68 hours. Venous blood samples were collected for quantitation of radioactivity at multiple time points.
# The post-treatment ^64Cu PET-MR study was initiated on the 7th day, with serial PET-MR imaging conducted 1, 2, 6, 20, 48, 54, and 68 hours after intravenous administration of ^64Cu.
# The study also assessed the kinetics of ^64Cu in the blood and its distribution among organs of interest. The SUV allows for semiquantitative assessment of copper in a desired volume of interest by measuring the ratio of observed copper activity to the total dose administered.
# [2] = in vivo
# [3] = tested on: patients with Wilson disease (WD); assay: Study 301: Clinical Global Impression scales (CGI-I, CGI-S); type: in vivo, human
# Text: Clinical Global Impression-[…]: The Clinical Global Impression (CGI) rating scales were commonly used measures of symptom severity, treatment response, and the efficacy of treatments in treatment studies of adult and pediatric patients with mental disorders.
# The Clinical Global Impression-Severity scale (CGI-S) is a 7-point scale that requires the clinician to rate the severity of the patient's illness at the time of assessment, relative to the clinician's past experience with patients who have the same diagnosis. Considering total clinical experience, a patient was assessed on severity of illness at the time of rating as: 1, normal, not at all ill; 2, borderline ill; 3, mildly ill; 4, moderately ill; 5, markedly ill; 6, severely ill; or 7, extremely ill.
# While transformed CGI-I (TCGI-I) assesses how the WD patients condition changed compared to baseline, CGI-I may indicate the overall clinical improvement of the patients in the study compared to baseline for each treatment arm.
substance,measurement,setting,value
Bis-choline tetrathiomolybdate [BC-TTM],"liver status, Modified Nazer Score",patients with WD; Study 201,stabilized or improved in the majority of patients
same,"neurological status, change from baseline in UWDRS Part III","patients with WD; Study 201, p<0.0001",significant improvements
same,"patient-reported disability, change from baseline in UWDRS Part II","patients with WD; Study 201, p<0.001",significant improvements
same,participants with total cholesterol increase above the ULN,"patients with WD; human, in vivo",7 participants
same,patients with reversible liver (function) test elevations,"patients with WD; human, in vivo",39%
same,tolerability,"patients with WD; human, in vivo",generally well-tolerated
same,mean SUV for the other organs after treatment,[1],did not change
same,AEs in SOC Investigations,[2],29.5%
same,AEs in SOC Metabolism and nutrition disorders,[2],11.5%
same,AEs in SOC Skin and subcutaneous tissue disorders,[2],13.1%
same,"Affective disorder, E events",[2],0
same,"Affective disorder, N participants",[2],0
same,"Alanine aminotransferase increased, E events",[2],14
same,"Alanine aminotransferase increased, N participants",[2],12
same,"Alanine aminotransferase increased, participants (%)",[2],19.7%
same,"Anxiety, E events",[2],1
same,"Anxiety, N participants",[2],1
same,"Anxiety, participants (%)",[2],1.6%
same,"Aspartate aminotransferase increased, E events",[2],4
same,"Aspartate aminotransferase increased, N participants",[2],4
same,"Aspartate aminotransferase increased, participants (%)",[2],6.6%
same,"Attention deficit hyperactivity disorder, E events",[2],0
same,"Attention deficit hyperactivity disorder, N participants",[2],0
same,"Blood and lymphatic system disorders, E events",[2],18
same,"Blood and lymphatic system disorders, N participants",[2],7
same,"Blood and lymphatic system disorders, participants (%)",[2],11.5%
same,"Cardiac disorders, E events",[2],5
same,"Cardiac disorders, N participants",[2],3
same,"Cardiac disorders, participants (%)",[2],4.9%
same,"Congenital, familial, and genetic disorders, E events",[2],0
same,"Congenital, familial, and genetic disorders, N participants",[2],0
same,"Dyslipidemia, E events",[2],1
same,"Dyslipidemia, N participants",[2],1
same,"Dyslipidemia, participants (%)",[2],1.6%
same,"Ear and labyrinth disorders, E events",[2],1
same,"Ear and labyrinth disorders, N participants",[2],1
same,"Ear and labyrinth disorders, participants (%)",[2],1.6%
same,"Eczema, E events",[2],1
same,"Eczema, N participants",[2],1
same,"Eczema, participants (%)",[2],1.6%
same,"Eye disorders, E events",[2],0
same,"Eye disorders, N participants",[2],0
same,"Fatigue, E events",[2],5
same,"Fatigue, N participants",[2],5
same,"Fatigue, participants (%)",[2],8.2%
same,"Gamma-glutamyltransferase increased, E events",[2],3
same,"Gamma-glutamyltransferase increased, N participants",[2],3
same,"Gamma-glutamyltransferase increased, participants (%)",[2],4.9%
same,"Gastrointestinal disorders, E events",[2],30
same,"Gastrointestinal disorders, N participants",[2],18
same,"Gastrointestinal disorders, participants (%)",[2],29.5%
same,"Hand dermatitis, E events",[2],1
same,"Hand dermatitis, N participants",[2],1
same,"Hand dermatitis, participants (%)",[2],1.6%
same,"Hepatic enzyme increased, E events",[2],3
same,"Hepatic enzyme increased, N participants",[2],3
same,"Hepatic enzyme increased, participants (%)",[2],4.9%
same,"Hepatobiliary disorders, E events",[2],3
same,"Hepatobiliary disorders, N participants",[2],2
same,"Hepatobiliary disorders, participants (%)",[2],3.3%
same,"Hyperlipidaemia, E events",[2],1
same,"Hyperlipidaemia, N participants",[2],1
same,"Hyperlipidaemia, participants (%)",[2],1.6%
same,"Hypertriglyceridaemia, E events",[2],3
same,"Hypertriglyceridaemia, N participants",[2],1
same,"Hypertriglyceridaemia, participants (%)",[2],1.6%
same,"Infections and infestations, E events",[2],23
same,"Infections and infestations, N participants",[2],17
same,"Infections and infestations, participants (%)",[2],27.9%
same,"Injury, poisoning and procedural complications, E events",[2],13
same,"Injury, poisoning and procedural complications, N participants",[2],7
same,"Injury, poisoning and procedural complications, participants (%)",[2],11.5%
same,"Investigations, E events",[2],29
same,"Investigations, N participants",[2],18
same,"Investigations, participants (%)",[2],29.5%
same,"Metabolism and nutrition disorders, E events",[2],10
same,"Metabolism and nutrition disorders, N participants",[2],7
same,"Metabolism and nutrition disorders, participants (%)",[2],11.5%
same,"Neoplasms benign, malignant, and unspecified (incl cysts and polyps), E events",[2],1
same,"Neoplasms benign, malignant, and unspecified (incl cysts and polyps), N participants",[2],1
same,"Neoplasms benign, malignant, and unspecified (incl cysts and polyps), participants (%)",[2],1.6%
same,"Nervous system disorders, E events",[2],12
same,"Nervous system disorders, N participants",[2],11
same,"Nervous system disorders, participants (%)",[2],18.0%
same,"Neutrophil count decreased, E events",[2],1
same,"Neutrophil count decreased, N participants",[2],1
same,"Neutrophil count decreased, participants (%)",[2],1.6%
same,"Post-traumatic stress disorder, E events",[2],1
same,"Post-traumatic stress disorder, N participants",[2],1
same,"Post-traumatic stress disorder, participants (%)",[2],1.6%
same,"Product issues, E events",[2],0
same,"Product issues, N participants",[2],0
same,"Pruritus, E events",[2],2
same,"Pruritus, N participants",[2],2
same,"Pruritus, participants (%)",[2],3.3%
same,"Psychiatric disorders, E events",[2],3
same,"Psychiatric disorders, N participants",[2],3
same,"Psychiatric disorders, participants (%)",[2],4.9%
same,"Pyrexia, E events",[2],1
same,"Pyrexia, N participants",[2],1
same,"Pyrexia, participants (%)",[2],1.6%
same,"Rash pruritic, E events",[2],1
same,"Rash pruritic, N participants",[2],1
same,"Rash pruritic, participants (%)",[2],1.6%
same,"Rash, E events",[2],5
same,"Rash, N participants",[2],1
same,"Rash, participants (%)",[2],1.6%
same,"Renal and urinary disorders, E events",[2],2
same,"Renal and urinary disorders, N participants",[2],1
same,"Renal and urinary disorders, participants (%)",[2],1.6%
same,"Reproductive system and breast disorders, E events",[2],0
same,"Reproductive system and breast disorders, N participants",[2],0
same,"Respiratory, thoracic, and mediastinal disorders, E events",[2],4
same,"Respiratory, thoracic, and mediastinal disorders, N participants",[2],3
same,"Respiratory, thoracic, and mediastinal disorders, participants (%)",[2],4.9%
same,"Restlessness, E events",[2],0
same,"Restlessness, N participants",[2],0
same,"Skin and subcutaneous tissue disorders, E events",[2],15
same,"Skin and subcutaneous tissue disorders, N participants",[2],8
same,"Skin and subcutaneous tissue disorders, participants (%)",[2],13.1%
same,"Sleep disorder, E events",[2],1
same,"Sleep disorder, N participants",[2],1
same,"Sleep disorder, participants (%)",[2],1.6%
same,"Vascular disorders, E events",[2],5
same,"Vascular disorders, N participants",[2],3
same,"Vascular disorders, participants (%)",[2],4.9%
same,imbalances in neurologic and psychiatric events after switch from SoC to BC-TTM,[2],not observed
same,CGI-I scores at week 48 versus SoC,"[3]; Study 301, FIG. 22",improvements
same,"CGI-S (1-7, 1 is normal), Change from Baseline at 48 weeks, Mean","[3]; Study 301, Full Analysis Set",−0.5
same,"CGI-S, Difference at 48 weeks, LSM (SE), BC-TTM vs SoC","[3]; Study 301, Full Analysis Set",−0.2 (0.13)
same,"T-CGI-I (−3 to 3, −3 is very much improved) at 48 weeks, Mean","[3]; Study 301, Full Analysis Set",−0.7
same,"T-CGI-I, Difference at 48 weeks, LSM (SE), BC-TTM vs SoC","[3]; Study 301, Full Analysis Set",−0.3 (0.15)
